Data set [1] concerns human erythroid progenitors (CFU-E, BFU-E). Description: Erythroid CFU assay in human bone marrow cells. It counts as cell-based. As to the method: (§1) Compounds were tested to evaluate the potential effects on human erythroid and myeloid progenitors using colony forming cell assays. Clonogenic progenitors of human erythroid (CFU-E, BFU-E), granulocyte-monocyte (CFU-GM) and multipotential (CFU-GEMM) lineages were assessed in a semi-solid methylcellulose-based media formulation containing rhlL-3 (10 ng/mL), rhGM-SCF (10 ng/mL), rhSCF (50 ng/mL) and Epo (3 U/mL).
(§2) Normal human bone marrow light density cells derived from normal bone marrow (NorCal Biologics, California) and qualified at ReachBio, were stored in the gaseous phase of liquid nitrogen (−152° C.) until required for the assay. On the day of the experiment, the cells were thawed rapidly, the contents of each vial was diluted in 10 mL of Iscove's modified Dulbecco's medium containing 10% fetal bovine serum (IMDM+10% FBS) and washed by centrifugation (approximately 1200 r.p.m. for 10 minutes, room temperature). The supernatant was discarded and the cell pellets resuspended in a known volume of IMDM+10% FBS. A cell count (3% glacial acetic acid) and viability assessment (trypan blue exclusion test) was performed for the bone marrow sample.
(§3) On the day of the experiment, the compounds were dissolved in DMSO to a stock concentration of 10 mM. Serial dilutions were prepared from the stock concentration to achieve concentrations of 2 and 0.4 mM. When added to the methylcellulose-based media at 1:1000 (v/v), the final test concentrations of 10, 2 and 0.4 μM were achieved. Additionally, 5-FU was evaluated at 1.0, 0.1 and 0.01 μg/mL.
(§4) Clonogenic progenitors of the human erythroid (CFU-E and BFU-E) and myeloid (CFU-GM) lineages were set up in the methylcellulose-based media formulations described above. All compounds were added to the medium to give the final desired concentrations (10, 2 and 0.4 μM). 5-Fluorouracil (Sigma Aldrich) was used as a positive control for progenitor proliferation (inhibition of colony growth) and was introduced to the human bone marrow cultures at 1.0, 0.1, and 0.01 μg/mL. Solvent control cultures (containing no compound but 0.1% DMSO) as well as standard controls (containing no compound and no DMSO) were also initiated.
(§5) Human myeloid and erythroid progenitor assays were initiated at 2.0×10^4 cells per culture. Following 14 days in culture, myeloid and erythroid colonies were assessed microscopically and scored by trained personnel. The colonies were divided into the following categories based on size and morphology: CFU-E, BFU-E, CFU-GM and CFU-GEMM.
(§6) The mean±one standard deviation of three replicate cultures was calculated for progenitors of each category (CFU-E, BFU-E, etc.). Two-tailed t-tests were performed to assess if there was a difference in the number of colonies generated between solvent control and treated cultures. Due to the potential subjectivity of colony enumeration, a p value of less than 0.01 is deemed significant. To calculate the concentration of 50% inhibition of colony growth (IC50) for each compound, a dose response curve was generated plotting the log of the compound concentration versus the percentage of control colony growth using XLfit software (IDBS). The concentration of 50% inhibition of colony growth (IC50) was calculated based on the sigmoid curve fit using Dose-Response, One-Site Model formula: y=A+[(B−A)/(1+((C/x)^D))], where A=the initial value (baseline response), B=maximum response, C=center (drug concentration that provokes a response halfway between A and B) and D=slope of the curve at midpoint. Further, plots and additional dose response curves were generated using GraphPad Prism 7.0.
(§7) Erythroid (CFU-E and BFU-E), myeloid (CFU-GM) and multi-potential (CFU-GEMM) colony enumeration was performed by trained personnel. The distribution of colony types as well as general colony and cellular morphology was analyzed. For statistical analysis colony numbers in compound treated cultures were compared to the solvent control cultures. […]

For data set [2], the system named is human myeloid progenitors (CFU-GM). The data set is described as follows: Myeloid CFU assay in human bone marrow cells. It counts as cell-based. As to the method: as §1, §2, §3, §4, §5, §6, §7
For data set [3], the target named is T1, CYP2D6 (Homo sapiens, UniProt P10635).
T1 construct: Human liver microsomes were obtained from BD Gentest; tissue BD Gentest; host or cells: human liver microsomes
T1 sequence (P10635 whole entry): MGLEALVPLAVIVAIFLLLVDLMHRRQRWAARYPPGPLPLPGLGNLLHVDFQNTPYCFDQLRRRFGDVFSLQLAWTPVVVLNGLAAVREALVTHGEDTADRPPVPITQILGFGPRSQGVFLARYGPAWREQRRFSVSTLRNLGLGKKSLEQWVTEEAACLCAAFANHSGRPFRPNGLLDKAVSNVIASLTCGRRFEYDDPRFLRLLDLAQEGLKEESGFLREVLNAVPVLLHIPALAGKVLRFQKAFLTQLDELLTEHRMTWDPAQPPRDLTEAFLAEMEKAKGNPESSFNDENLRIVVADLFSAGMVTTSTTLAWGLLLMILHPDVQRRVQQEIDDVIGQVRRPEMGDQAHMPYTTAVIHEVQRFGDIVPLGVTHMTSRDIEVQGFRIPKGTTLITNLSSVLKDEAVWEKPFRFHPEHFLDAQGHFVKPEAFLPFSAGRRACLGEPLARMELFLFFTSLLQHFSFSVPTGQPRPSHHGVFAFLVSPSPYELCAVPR
The data set is described as follows: CYP inhibition assay in human liver microsomes (2D6). It counts as in vitro ADME. The settings on record: for inhibition at 10 min, 10 µM: human liver microsomes; for inhibition of CYP2D6 (in words): 10 μM. How it is done:
(§8) Compounds were tested to evaluate their inhibitory potential on CYP2D6 and CYP3A4 (midazolam) using human liver microsomes. Human liver microsomes were obtained from BD Gentest, and each compound was run in duplicate.
(§9) The test compounds and reference inhibitors (quinidine for 2D6, ketoconazole for 3A4) were plated in a 96-well plate by transferring 8 μL of 10 mM stock solutions of compound in DMSO to 12 μL of acetonitrile. Individual inhibitor spiking solutions were prepared for CYP2D6 and CYP3A4 (8 μL of DMSO stock added to 12 μL of acetonitrile). Next added 400 μL of 0.2 mg/mL HLM to the assay wells and then added 2 μL of 400× test compound into the designated wells on ice. Next, added 200 μL of 0.2 mg/mL HLM to the assay wells and then added 1 μL of reference inhibitor solutions into the designated wells. The following solutions were added (in duplicate) to a 96-well assay plate on ice: The test compounds and reference inhibitors (quinidine for 2D6, ketoconazole for 3A4) were tested using the following experimental procedure:
(§10) 10. Incubate the assay plate at 37° C. 5 min for 3A4, 10 min for 2D6.
(§11) 11. Stop the reaction by adding 120 μL of ACN containing Internal Standard. For CYP3A4, the internal standard is 1′OH-midazolam-D4 (10 μM solution diluted to a final concentration of 0.1 μM by adding 100 μL internal standard stock to 10 mL ACN). For CYP2D6, the internal standard is 1-OH-Bufuralol-maleate-[D9] (49 μM solution diluted to a final concentration of 0.1 μM by adding 20 μL internal standard stock to 10 mL ACN).
(§12) The assessment on CYP isoform inhibition is as follows based on the assay results: if percentage of CYP inhibition is higher than 50%, indicates potent inhibition; if percentage of CYP inhibition is between 30-50%, indicates […]; if percentage of CYP inhibition is less than 30%, indicates slight or no inhibition. If the percentage of CYP inhibition is less than −30%, this indicates the compound may have some kind of activation of this isoform.
For orientation: Liver microsomes are vesicles of endoplasmic reticulum, rich in cytochrome P450 enzymes.

Data set [4] concerns the target T2, CYP3A4 (Homo sapiens, UniProt P08684).
T2 construct: Human liver microsomes were obtained from BD Gentest; tissue BD Gentest; host or cells: human liver microsomes
The data set is described as follows: CYP inhibition assay in human liver microsomes (3A4, midazolam). The settings on record: for inhibition at 5 min, 10 µM: probe midazolam, human liver microsomes, midazolam. It counts as in vitro ADME. As to the method: as §8, §9, §10, §11, §12

Data set [5] is described as follows: Aqueous kinetic solubility measurement. It counts as physicochemical. As to conditions: for solubility at 1 h: aqueous buffer, kinetic from dmso stock, kinetic, 100 mM phosphate buffer pH 7.4, 1% DMSO. How it is done: Compounds were evaluated for their kinetic solubility in buffer or water. Aliquots of 8 μL of reference and test compound stock solutions (10 mM in DMSO) were added into 792 μL of 100 mM phosphate buffer (0.1 M NaPO4, pH 7.4). Final DMSO concentration is 1%. The sample tubes were shaken for 1 hour (1000 rpm) at room temperature. A calibration curve was prepared using 300 μM spiking solution (SS) in MeOH/ACN(4:1) (SS=add 6 μL 10 mM compound in 194 μL MeOH/ACN(4:1)). Samples were centrifuged for 10 min (12000 rpm) to precipitate undissolved particles, and the supernatants were transferred to a new tube or plate. Supernatants were diluted 10 times and 100 times with 100 mM buffer. Samples were then prepared for analysis by LC-MS/MS (Add 5 μL of compound samples (not diluted, 10 times diluted and 100 times diluted) and standard curve samples to 95 μL of ACN containing internal standard. Internal standards used are Propranolol, Ketoconazole, and Tamoxifen.

The target in data set [6] is T3, HDAC2 (Homo sapiens, UniProt Q92769). Description: HDAC2 enzymatic inhibition assay in SY5Y cell lysate with HDAC-Glo2 substrate. It counts as cell-based. Details: host or cells: SH-SY5Y. As to conditions: SH-SY5Y cells, 5 h compound incubation, HDAC-Glo 2 reagent. As to the method: HDAC2 Enzymatic Inhibition Assay in SY5Y Cell Lysate with HDAC-Glo2 Substrate
T3 sequence (Q92769 whole entry): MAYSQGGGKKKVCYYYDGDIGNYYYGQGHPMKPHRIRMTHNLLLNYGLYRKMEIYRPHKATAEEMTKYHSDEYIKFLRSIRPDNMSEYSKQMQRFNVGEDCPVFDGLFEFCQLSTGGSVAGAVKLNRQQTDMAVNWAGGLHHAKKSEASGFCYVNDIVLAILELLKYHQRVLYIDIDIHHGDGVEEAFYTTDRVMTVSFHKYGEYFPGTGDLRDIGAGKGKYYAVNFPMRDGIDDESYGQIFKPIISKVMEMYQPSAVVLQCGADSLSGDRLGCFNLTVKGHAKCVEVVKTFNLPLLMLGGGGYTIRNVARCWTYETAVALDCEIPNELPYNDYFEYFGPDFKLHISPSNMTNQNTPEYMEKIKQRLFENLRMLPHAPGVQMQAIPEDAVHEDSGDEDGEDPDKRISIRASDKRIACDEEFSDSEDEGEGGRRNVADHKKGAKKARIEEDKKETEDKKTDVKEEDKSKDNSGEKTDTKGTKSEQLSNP
SH-SY5Y cells (Sigma) were cultured in Eagle's Modified Essential Medium supplemented with 10% fetal bovine serum and pen/strep. Twenty-four hours prior to compound dosing 20 uL of cells were plated in white 384 well plates at a density of 1,500 cells/well. Compounds were serially diluted in neat DMSO and then diluted 1:100 v/v into media without FBS and mixed. Media was removed from the plated cells and the diluted compounds in serum free media (1% v/v final DMSO) were added and incubated at 37.0 for five hours. Ten uL of HDAC-Glo 2 reagent with 0.1% Triton X-100 was then added, the plate was mixed and allowed to develop at room temperature for 100 minutes. Plates were then read with a Spectramax LMax luminometer employing a 0.4 s integration time. Dose response curves were constructed with normalized data where CI-994 at 100 uM was defined as 100% inhibition and DMSO alone as 0% inhibition.

Data set [7] has as its target T4, HDAC1 (Homo sapiens, UniProt Q13547).
T4 construct: purchased BPS Bioscience
The data set is described as follows: HDAC1 recombinant enzymatic assay. As to conditions: 5 h pre-incubation, 5 nM enzyme; read-out: HDAC recombinant enzymatic IC50 HDAC1. It counts as biochemical. As to the method: (§13) The following describes an assay protocol for measuring the deacetylation of a peptide substrate by the enzymes HDAC2 or HDAC1.
(§14) All recombinant human HDACs were purchased from BPS Bioscience. The substrate, FAM-TSRHK(AC)KL-CONH, was synthesized at NanoSyn. Final assay reactions contained 100 mM HEPES (pH 7.5), 50 mM KCl, 0.1% BSA, 0.01% Triton X-100, 1% DMSO, 1 uM substrate and 5 nM HDAC enzyme. Enzyme and compounds were pre-incubated at 25° C. for 5 hours and reactions were initiated by addition of substrate. 10 uL reactions were incubated for 17 hours at 25° C. and terminated by the addition of 40 uL of buffer containing 100 mM HEPES (pH 7.5), 0.1% BSA, 0.01% Triton X-100 and 0.05% SDS. Substrate and product peptides present in each sample were separated electrophoretically using the LabChip 3000 capillary electrophoresis instrument. Change in the relative fluorescence intensity of the substrate and product peaks reflects enzyme activity. Reaction progress was determined as the product to sum ratio (PSR):P/(S+P), where P is the peak height of the product peptide and S is the peak height of the substrate peptide. Reactions were performed in duplicate at 12 concentrations, (3× serial dilutions starting at 30 uM). IC50 values were calculated using a 4 Parameter Logistic Model.

The target of data set [8] is T3, HDAC2. Description: HDAC2 recombinant enzymatic assay. It counts as biochemical. Details: purchased BPS Bioscience. As to conditions: 5 h pre-incubation, 5 nM enzyme; read-out: HDAC recombinant enzymatic IC50 HDAC2. As to the method:
as §13, §14

[9] abbreviates: 10 μM, 14 days culture, human bone marrow cells.

Converted amounts (≈) assume the structure as drawn.

As usually defined, the inhibition is the drop in the measured response relative to a control, in per cent. One may read the solubility as the concentration that dissolves in the medium under given conditions. A higher solubility goes with a readily soluble substance. By IC50 is commonly meant the concentration that gives 50% inhibition.

T4 sequence (Q13547 whole entry): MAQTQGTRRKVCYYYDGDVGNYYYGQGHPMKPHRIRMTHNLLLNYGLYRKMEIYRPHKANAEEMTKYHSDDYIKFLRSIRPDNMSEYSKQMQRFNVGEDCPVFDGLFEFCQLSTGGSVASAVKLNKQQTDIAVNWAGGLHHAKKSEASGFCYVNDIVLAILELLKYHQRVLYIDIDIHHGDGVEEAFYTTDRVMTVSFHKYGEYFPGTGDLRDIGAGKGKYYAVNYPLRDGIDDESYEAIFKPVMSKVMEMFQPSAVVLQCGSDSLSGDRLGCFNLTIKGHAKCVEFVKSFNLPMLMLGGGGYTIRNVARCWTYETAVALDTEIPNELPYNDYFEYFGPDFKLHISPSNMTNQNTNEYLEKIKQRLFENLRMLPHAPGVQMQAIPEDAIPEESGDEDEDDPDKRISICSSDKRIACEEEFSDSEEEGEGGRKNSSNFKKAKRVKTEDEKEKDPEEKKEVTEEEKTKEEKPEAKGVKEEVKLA
T2 sequence (P08684 whole entry): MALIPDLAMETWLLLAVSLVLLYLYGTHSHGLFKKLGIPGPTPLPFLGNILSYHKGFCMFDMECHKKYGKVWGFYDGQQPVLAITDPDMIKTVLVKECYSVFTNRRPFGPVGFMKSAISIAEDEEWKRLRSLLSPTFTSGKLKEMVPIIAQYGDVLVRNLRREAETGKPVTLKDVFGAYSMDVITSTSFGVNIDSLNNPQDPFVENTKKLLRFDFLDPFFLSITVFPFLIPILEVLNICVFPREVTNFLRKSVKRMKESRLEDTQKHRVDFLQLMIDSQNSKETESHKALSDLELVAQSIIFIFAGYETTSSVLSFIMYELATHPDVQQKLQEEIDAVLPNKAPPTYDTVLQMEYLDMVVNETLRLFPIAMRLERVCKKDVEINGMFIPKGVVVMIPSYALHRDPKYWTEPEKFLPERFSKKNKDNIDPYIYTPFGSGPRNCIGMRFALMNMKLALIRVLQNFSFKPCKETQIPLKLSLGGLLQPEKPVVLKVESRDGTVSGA

In the case of `O=c1[nH]cc(F)c(=O)[nH]1` [Compound 5-FU, 5-Fluorouracil], the “inhibitory effects on erythroid colony growth (positive control, in words)” value in data set [1] (1.0, 0.1 and 0.01 μg/mL) is “exactly as expected”. In addition, the “inhibitory effects on myeloid colony growth (positive control, in words)” value in data set [2] (1.0, 0.1 and 0.01 μg/mL) was “exactly as expected”.
For `COCc1cc2c(cn1)CN(C(=O)Nc1nc(-c3ccc(F)cc3)ccc1N)C2` [Comparator I], in data set [3], the inhibition at 10 min, 10 µM is 2%. Moreover, in data set [4], the inhibition at 5 min, 10 µM was 33%. Besides, in data set [1] (setting [9]), the “CFU % Control remaining @ 10 μM Erythroid” value is given as 23%. Also, the “CFU % Control remaining @ 10 μM Myeloid” value in data set [2] (setting [9]) was 59%. This compound also came in with a solubility at 1 h in data set [5] of 121 µM (≈ 47.6 µg/mL). Besides, the IC50 in data set [6] turned out to be 666 nM.
On to `Cc1cc2c(cn1)CN(C(=O)Nc1nc(-c3ccc(F)cc3)ccc1N)C2` [Comparator H], for which the figures for the IC50 in data set [7], in data set [6] and in data set [8] were 90 nM, 621 nM and 214 nM, respectively. The inhibition at 10 min, 10 µM in data set [3] turned out to be 57%. Besides, the inhibition at 5 min, 10 µM in data set [4] was found to be 28%. For the same compound, the solubility at 1 h in data set [5] is 78 µM (≈ 28.3 µg/mL).
Take `Nc1ccc(-c2ccc(F)cc2)nc1NC(=O)N1Cc2cccnc2C1` [Comparator F]: the figures for the IC50 in data set [7], in data set [6] and in data set [8] were 79 nM, 394 nM and 304 nM, respectively. The “inhibition of CYP2D6 (in words)” value in data set [3] is “high levels”. For the same compound, in data set [3], the inhibition at 10 min, 10 µM turned out to be 62%. Also, in data set [4], the inhibition at 5 min, 10 µM was -4%. Further, the “solubility (in words)” value in data set [5] is recorded as “extremely low”. Moreover, in data set [5], the solubility at 1 h turned out to be 1 µM (≈ 0.349 µg/mL).
For the compound `Nc1ccc(-c2ccc(F)cc2)nc1NC(=O)N1Cc2ccncc2C1` [Comparator G], the IC50 in data set [7] worked out at 143 nM; in data set [6] it was 639 nM; in data set [8], 335 nM. Further, the “inhibition of CYP2D6 (in words)” value in data set [3] is listed as “inhibited at high levels”. Further, in data set [3], the inhibition at 10 min, 10 µM amounted to 94%. Also, the “inhibition of CYP3A4 (in words)” value in data set [4] (10 μM) is recorded as “inhibited at high levels”. Besides, in data set [4], the inhibition at 5 min, 10 µM is 65%. Also, in data set [5], the solubility at 1 h worked out at 55 µM (≈ 19.2 µg/mL).

The record behind these values is patent US11286256B2, “Bicyclic inhibitors of histone deacetylase” (Alkermes, Inc., priority 2017, dated 2022).
